This is an account of results in patent publication US9359634B2, “Fast reaction kinetics of enzymes having low activity in dry chemistry layers” (Roche Diabetes Care, Inc., priority 2009, dated 2016).

Experiment [1] concerns the target T1, wild type glucose dehydrogenase (GlucDH) from Bacillus subtilis (Bacillus subtilis, UniProt P12310, A229V/A236S/Q252K). The following applies: in the complex GlucDH-NADH; cited from earlier work.
Experiment [2] addresses T1, wild type glucose dehydrogenase (GlucDH) from Bacillus subtilis. The experiment is described as follows: Detection of ternary complexes by NADH fluorescence in the cuvette test. Format: binding. Here is the method: In order to check the existence of ternary complexes consisting of enzyme, reduced coenzyme and glucose or gluconolactone, experiments on the binding of the analyte based on the fluorescence properties of NADH were carried out in the cuvette test.
For this purpose, 1 mg NADH (Roche Company) was dissolved in 1 ml phosphate buffer and the associated fluorescence spectrum was recorded. Subsequently, 10 mg wild type glucose dehydrogenase (GlucDH) from Bacillus subtilis was added whereupon the complex GlucDH-NADH known from the literature was formed, which complex, due to a considerably longer life time of NADH (3 ns compared to 0.4 ns in the free state), yielded a shifted emission maximum at 450 nm (see FIG. 3).
The lowering of the fluorescence which also corresponds to a shortening of the life time is presumably due to the rapid energy depletion by the redox pair NADH-gluconolactone.

The target in experiment [3] is glucose dehydrogenase from Bacillus subtilis (Bacillus subtilis, UniProt P12310, A229V/A236S/Q252K). Format: biochemical. The following applies: dry reagent layer with wild type glucose dehydrogenase, blood applied, presence vs absence of gluconolactone.
glucose dehydrogenase from Bacillus subtilis, sequence (P12310 whole entry A229V/A236S/Q252K): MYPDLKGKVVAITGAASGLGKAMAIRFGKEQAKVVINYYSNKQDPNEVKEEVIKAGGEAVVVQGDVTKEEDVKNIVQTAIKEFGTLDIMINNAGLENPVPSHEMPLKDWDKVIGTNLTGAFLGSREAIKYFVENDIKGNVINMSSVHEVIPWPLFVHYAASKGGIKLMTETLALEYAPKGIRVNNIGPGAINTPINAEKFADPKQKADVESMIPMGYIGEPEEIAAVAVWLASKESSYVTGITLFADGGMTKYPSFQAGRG

T1 sequence (P12310 whole entry A229V/A236S/Q252K): as above

As for `NC(=O)C1=CN([C@@H]2O[C@H](COP(=O)(O)OP(=O)(O)OC[C@H]3O[C@@H](n4cnc5c(N)ncnc54)[C@H](O)[C@@H]3O)[C@@H](O)[C@H]2O)C=CC1` [NADH], in experiment [1], the “life time of NADH” value was 3 ns. The molecule also registered an emission maximum in experiment [2] (NADH in the complex GlucDH-NADH, phosphate buffer) of 450 nm.
Regarding `O=C1O[C@H](CO)[C@@H](O)[C@H](O)[C@H]1O` [gluconolactone], in experiment [2] (binary complex GlucDH-NADH titrated with the substance), the “change of fluorescence on titration of the complex GlucDH-NADH” value is listed as “lowered the fluorescence”. For the same molecule, in experiment [2] (complex GlucDH-NADH after titration with gluconolactone), the emission maximum stood at 427 nm. Also, in experiment [3], the “effect of added gluconolactone on the conversion of glucose” value was “considerable slowing down of the conversion”.
